We go through four compounds from patent publication US20070071833A1, “Fungicidal mixtures for controlling rice pathogens” (BASF Aktiengesellschaft, priority 2003, published 2007).

In the assay the test system is Cochliobolus miyabeanus. Briefly: activity against brown spot of rice caused by Cochliobolus miyabeanus, protective application (potted rice seedlings). The conditions noted are these: individual active compound, rice cultivar Tai-Nong 67, protective spray, evaluated after six days. The assay is classed as in vivo. On the procedure:
The active compounds, separately or jointly, were prepared as a stock solution with 0.25% by weight of active compound in acetone or DMSO. 1% by weight of the emulsifier Uniperol® EL (wetting agent having emulsifying and dispersing action based on ethoxylated alkylphenols) was added to this solution, and the solution was diluted with water to the desired concentration.
Use example—activity against brown spot of rice caused by Cochliobolus miyabeanus, protective application
Leaves of potted rice seedlings of the cultivar “Tai-Nong 67” were sprayed to runoff point with an aqueous suspension of the concentration of active compound stated below. The next day, the plants were inoculated with an aqueous spore suspension of Cochliobolus miyabeanus. The test plants were then placed in climatized chambers at 22-24° C. and 95-99% relative atmospheric humidity for six days. The extent of the development of the infection on the leaves was then determined visually.
Evaluation was carried out by determining the percentage of infected leaf area. These percentages were converted into efficacies.
The efficacy (E) is calculated as follows using Abbot's formula: E=(1−α/β)·100 • α corresponds to the fungicidal infection of the treated plants in % and • β corresponds to the fungicidal infection of the untreated (control) plants in %
An efficacy of 0 means that the infection level of the treated plants corresponds to that of the untreated control plants; an efficacy of 100 means that the treated plants were not infected.
The expected efficacies of mixtures of active compounds are determined using Colby's formula (R. S. Colby, Weeds, 15, 20-22, 1967) and compared with the observed efficacies.
Colby's formula: E=x+y−x·y/100 • E expected efficacy, expressed in % of the untreated control, when using the mixture of the active compounds A and B at the concentrations a and b • x efficacy, expressed in % of the untreated control, when using the active compound A at the concentration a • y efficacy, expressed in % of the untreated control, when using the active compound B at the concentration b

In the case of `CC1CCN(c2c(-c3c(F)cc(F)cc3F)c(Cl)nc3ncnn23)CC1` [I, 5-chloro-7-(4-methylpiperidin-1-yl)-6-(2,4,6-trifluorophenyl)-[1,2,4]tri-azolo[1,5-a]pyrimidine], the “Efficacy in % of the untreated control” value is reported as 4% (1 ppm in the spray liquor) and 28% (4 ppm in the spray liquor).

Regarding `S1SSSSSSS1` [II (sulfur), sulfur], the “Efficacy in % of the untreated control” value (1 ppm in the spray liquor) is given as 4% and the “Efficacy in % of the untreated control” value (4 ppm in the spray liquor) stood at 4%.

On to `CC1CCN(c2c(-c3c(F)cccc3F)c(Cl)nc3ncnn23)CC1` [comparative compound A], for which the “Efficacy in % of the untreated control” value is on record as 28% (1 ppm in the spray liquor) and 40% (4 ppm in the spray liquor).

With `C[C@H](Nc1c(-c2c(F)cc(F)cc2F)c(Cl)nc2ncnn12)C(F)(F)F` [comparative compound B], the “Efficacy in % of the untreated control” value (1 ppm in the spray liquor) is reported as 0% and the “Efficacy in % of the untreated control” value (4 ppm in the spray liquor) was determined as 16%.
